Test system: HEK293 cells
Assay: Preliminary screening as DNA vectors, GFP transfection of HEK293 cells
Format: cell-based
Details: amino lipid/DOPE liposome with 75 ng plasmid DNA (psin-EGFP-IRES-Puro); number of GFP-expressing cells divided by total nuclei (Hoechst)
Procedure, shortened: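 Lipid + DOPE liposomes (NaOAc, pH 5.6) complexed w/ 75 ng psin-EGFP-IRES-Puro, 30 min RT; added to 3-5×10^4 HEK293/well, 37° C. Hoechst 0.2 μg/mL at 20-24 h, imaged after further 20-24 h. Efficiency = GFP+ cells / total nuclei.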

Row | SMILES | Absolute DNA transfection efficiency in HEK293 cells [%]
1 | CCCCCCCCCCCCN(CCCCCCCCCCCC)c1nc(NCCCN2CCOCC2)nc(SCCCCCC)n1 [S6^2N12 D8] | 0.0
2 | CCCCCCCCCCSc1nc(NCCN2CCOCC2)nc(SCCCCCC)n1 [S6S10 D2] | 8.3
3 | CCCCCCCCCCCSc1nc(NCCCCCCC)nc(NCCN2CCN(C)CC2)n1 [S11N7 D5] | 22.8
4 | CCCCCCSc1nc(NCCN2CCCCC2)nc(SCCCCCC)n1 [S6S6 D4] | 1.4
5 | CCCCCCCCCCCCCCCCCCNc1nc(NCCCN(C)C)nc(SCCCCCCCCCCCCCCC)n1 [S15N18 D6] | 0.3
6 | CCCCCCCCCCCCCNc1nc(NCCCN(C)C)nc(SCCCCCCCC)n1 [S8N13 D6] | 55.1
7 | CCCCCCCCCCCSc1nc(NCCCN2CCN(C)CC2)nc(SCCCCCCC)n1 [S7S11 D9] | 25.9
8 | CCCCCCCCCCSc1nc(NCCCCCC)nc(NCCCN(C)C)n1 [S10N6 D6] | 3.5
9 | CCCCCCCCCCCCCCCCCCSc1nc(NCCCN(C)C)nc(SCCCCCC)n1 [S6S18 D6] | 0.0
10 | CCCCCCCCSc1nc(NCCCCCCC)nc(NCCN2CCOCC2)n1 [S8N7 D2] | 0.4
11 | CCCCCCCCCCCCCCSc1nc(NCCCCCC)nc(NCCN2CCCCC2)n1 [S14N6 D4] | 2.5
12 | CCCCCCCCCCCCCCCCSc1nc(NCCCCCCCCCCCCC)nc(NCC2CCN(C)CC2)n1 [S16N13 D10] | 2.0
13 | CCCCCCCCCCCCN(CCCCCCCCCCCC)c1nc(NCCCN2CCOCC2)nc(SCCCCCCC)n1 [S7^2N12 D8] | 0.0
14 | CCCCCCCCCCCCCCCSc1nc(NCCCCCCC)nc(NCCN(C)C)n1 [S15N7 D1] | 18.2
15 | CCCCCCCCCCCCCCCNc1nc(NCCN2CCCCC2)nc(SCCCCCC)n1 [S6N15 D4] | 1.7
16 | CCCCCCCCCCCCCCCCNc1nc(NCCN(C)C)nc(SCCCCCCCCCC)n1 [S10N16 D1] | 7.8
17 | CCCCCCCCCCCNc1nc(NCCCN2CCN(C)CC2)nc(SCCCCCC)n1 [S6N11 D9] | 21.1
18 | CCCCCCCCCCCCCCCNc1nc(NCCN2CCOCC2)nc(SCCCCCCCC)n1 [S8N15 D2] | 4.9
19 | CCCCCCCCCCSc1nc(NCCCCCCCCC)nc(NCCN2CCOCC2)n1 [S10N9 D2] | 3.7
20 | CCCCCCCCCCCSc1nc(NCCCCCC)nc(NCCCN2CCOCC2)n1 [S11N6 D8] | 13.3
21 | CCCCCCCCCCCCCCSc1nc(NCCN(C)C)nc(SCCCCCCC)n1 [S7S14 D1] | 7.7
22 | CCCCCCCCSc1nc(NCCN2CCOCC2)nc(SCCCCCCC)n1 [S7S8 D2] | 0.0
23 | CCCCCCCCCCCCSc1nc(NCCCCCCCCC)nc(NCCCN(C)C)n1 [S12N9 D6] | 37.0
24 | CCCCCCCCCCCCCCCNc1nc(NCCN2CCCCC2)nc(SCCCCCCC)n1 [S7N15 D4] | 4.9
25 | CCCCCCCCCSc1nc(NCCN2CCCCC2)nc(SCCCCCCCC)n1 [S8S9 D4] | 13.2
26 | CCCCCCCCCCCCCCCNc1nc(NCCN(C)C)nc(SCCCCCC)n1 [S6N15 D1] | 5.8
27 | CCCCCCCCCCCCCNc1nc(NCCCN2CCN(C)CC2)nc(SCCCCCCCCC)n1 [S9N13 D9] | 19.9
28 | CCCCCCCCCCCCCCCCCCNc1nc(NCCCN(C)C)nc(SCCCCCCCCCCCC)n1 [S12N18 D6] | 0.6
29 | CCCCCCCCCCCCSc1nc(NCCCCCCC)nc(NCCN2CCN(C)CC2)n1 [S12N7 D5] | 3.6
30 | CCCCCCCCCCCCCCCCSc1nc(NCCN2CCOCC2)nc(N(CCCCCCCCCCCC)CCCCCCCCCCCC)n1 [S16^2N12 D2] | 0.0

Source: patent US20230123334A1, “AMINO LIPID COMPOUND, PREPARATION METHOD THEREFOR, AND APPLICATION THEREOF” (SHENZHEN SHENXIN BIOTECHNOLOGY CO., LTD., priority 2020, published 2023)
